The supplement of paper PMC10307832

What was measured:
Assay in all cases: relative viability (nuclei count vs DMSO), 5 days (fraction); higher = more cells survive
[1] = compound: CC(C)C[C@H](NC(=O)[C@H](CCc1ccccc1)NC(=O)CN1CCOCC1)C(=O)N[C@@H](Cc1ccccc1)C(=O)N[C@@H](CC(C)C)C(=O)[C@@]1(C)CO1 [Carfilzomib] + CC(=O)c1c(C)c2cnc(Nc3ccc(N4CCNCC4)cn3)nc2n(C2CCCC2)c1=O [Palbociclib] (partner 0.5 µM)
In short: (§1)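 Five library-drug doses in √10 steps were combined with a fixed anchor-drug dose, or a single drug was given alone, by pin tool to lung cancer cell lines in 1536-well plates the day after seeding. Nuclei were stained and counted after 5 days. Relative viability is the nuclei count in treated wells over that in vehicle wells, taken as the median of duplicate plates.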

Carfilzomib + Bortezomib = compound: CC(C)C[C@H](NC(=O)[C@H](CCc1ccccc1)NC(=O)CN1CCOCC1)C(=O)N[C@@H](Cc1ccccc1)C(=O)N[C@@H](CC(C)C)C(=O)[C@@]1(C)CO1 [Carfilzomib] + CC(C)C[C@H](NC(=O)[C@H](Cc1ccccc1)NC(=O)c1cnccn1)B(O)O [Bortezomib] (partner 0.002 µM)
In short: as §1

Carfilzomib + AZD7762 = compound: CC(C)C[C@H](NC(=O)[C@H](CCc1ccccc1)NC(=O)CN1CCOCC1)C(=O)N[C@@H](Cc1ccccc1)C(=O)N[C@@H](CC(C)C)C(=O)[C@@]1(C)CO1 [Carfilzomib] + NC(=O)Nc1cc(-c2cccc(F)c2)sc1C(=O)N[C@H]1CCCNC1 [AZD7762] (partner 0.2 µM)
In short: as §1

Carfilzomib + Decitabine = compound: CC(C)C[C@H](NC(=O)[C@H](CCc1ccccc1)NC(=O)CN1CCOCC1)C(=O)N[C@@H](Cc1ccccc1)C(=O)N[C@@H](CC(C)C)C(=O)[C@@]1(C)CO1 [Carfilzomib] + Nc1ncn([C@H]2C[C@H](O)[C@@H](CO)O2)c(=O)n1 [Decitabine] (partner 2 µM)
In short: as §1

| Cell Line | relative viability ([1]; first compound 0.001 µM) | relative viability ([1]; first compound 0.003162 µM) | relative viability ([1]; first compound 0.01 µM) | relative viability ([1]; first compound 0.03162 µM) | relative viability ([1]; first compound 0.1 µM) | relative viability (Carfilzomib + Bortezomib; first compound 0.001 µM) | relative viability (Carfilzomib + Bortezomib; first compound 0.003162 µM) | relative viability (Carfilzomib + Bortezomib; first compound 0.01 µM) | relative viability (Carfilzomib + Bortezomib; first compound 0.03162 µM) | relative viability (Carfilzomib + Bortezomib; first compound 0.1 µM) | relative viability (Carfilzomib + AZD7762; first compound 0.001 µM) | relative viability (Carfilzomib + AZD7762; first compound 0.003162 µM) | relative viability (Carfilzomib + AZD7762; first compound 0.01 µM) | relative viability (Carfilzomib + AZD7762; first compound 0.03162 µM) | relative viability (Carfilzomib + AZD7762; first compound 0.1 µM) | relative viability (Carfilzomib + Decitabine; first compound 0.001 µM) | relative viability (Carfilzomib + Decitabine; first compound 0.003162 µM) | relative viability (Carfilzomib + Decitabine; first compound 0.01 µM) | relative viability (Carfilzomib + Decitabine; first compound 0.03162 µM) | relative viability (Carfilzomib + Decitabine; first compound 0.1 µM) |
| --- | --- | --- | --- | --- | --- | --- | --- | --- | --- | --- | --- | --- | --- | --- | --- | --- | --- | --- | --- | --- |
| NCI-H2405 | 0.498 | 0.527 | 0.539 | 0.489 | 0.136 | 0.926 | 1.01 | 1.06 | 0.15 | 0.202 | 0.717 | 0.783 | 0.932 | 0.689 | 0.262 | 0.803 | 0.881 | 0.763 | 0.57 | 0.225 |
| NCI-H3122 | 0.238 | 0.222 | 0.191 | 0.187 | 0.132 | 1.04 | 0.996 | 1.05 | 0.855 | 0.814 | 0.948 | 1.05 | 1 | 0.895 | 0.588 | 0.451 | 0.441 | 0.421 | 0.462 | 0.216 |
| PC-3 [JPC-3] | 0.516 | 0.539 | 0.564 | 0.502 | 0.333 | 0.864 | 0.767 | 0.581 | 0.245 | 0.147 | 0.882 | 0.762 | 0.993 | 0.512 | 0.248 | 0.832 | 0.879 | 0.89 | 0.64 | 0.301 |
| PC-14 | 0.558 | 0.597 | 0.437 | 0.05 | 0.0508 | 0.888 | 0.963 | 0.494 | 0.0957 | 0.0938 | 0.377 | 0.368 | 0.392 | 0.158 | 0.0776 | 0.198 | 0.273 | 0.23 | 0.0558 | 0.0667 |
| RERF-LC-KJ | 1.07 | 1.04 | 1.27 | 0.837 | 0.193 | 0.994 | 1.05 | 0.926 | 0.47 | 0.258 | 0.827 | 1.11 | 1.24 | 0.927 | 0.309 | 0.744 | 0.721 | 0.807 | 0.422 | 0.207 |
